Here are results for 8 molecules from US20080103191A1, “ENTACAPONE-DERIVATIVES” (priority 2006, published 2008).

Converted amounts (≈) assume the structure as drawn. Where two headings read alike, the source gives them in different places.

One data set can be described thus: Plasma stability ex vivo. It is filed as in vitro ADME. As to conditions: human plasma, 37° C., read-out: t1/2 plasma. How it is done: Plasma stability is determined in human and rat plasma ex vivo. For the determination of the plasma stability of the compounds of formula I, the test compounds were incubated with human plasma (c=5 μg/mL) at 37° C. for certain time intervals up to 60, resp. 120 min (depending on the compound). Afterwards the incubations were stopped by equivalent addition of acetonitrile for protein precipitation, and the samples were mixed and centrifuged. The supernatants were adequately diluted and analyzed by HPLC with UV detection at 305 nm.
The degradation of the compounds of formula I as well as the formation of the active drug entacapone were monitored, and the half-life times of the compounds of formula I were calculated from the obtained peak areas.

Data set [1] in a line: Log D (pH 7.4) by isocratic HPLC. It is filed as physicochemical. To be noted: YMC Pro C18 column, phosphate buffer pH 7.4/acetonitrile 45/55. On the procedure: LogD is an indicator for absorption and lipophilicity for ionized compounds under defined pH conditions and is measured by applying an isocratic HPLC Method at pH 7.4.
The log D has been tested at pH 7.4. The testing has been carried out by the following method: Isocratic HPLC method: Column YMC Pro C18, 150 mm×4.0 mm, 3 μm, Eluent Phosphate buffer pH 7.4/acetonitrile (45/55, (v/v)), Runtime 15-60 min, Flow rate 1.2 ml/min, Detection wavelength: 220 nm

Data set [2] can be described thus: Chemical hydrolysis stability at pH 1 and pH 7.4 (HPLC). It is filed as physicochemical. As to conditions: 37° C., over 12 h. How it is done:
The stability of compounds of the present invention is tested at pH 1 and at pH 7.4. The testing is carried out by the following HPLC method:
Chemical hydrolysis rates t1/2 [h] of selected compounds of formula I are determined in 0.1 N HCl (pH 1) and PBS buffer (pH 7.4) solution. Solutions are prepared by dissolving an appropriate amount of compound in 0.1 N HCl and PBS buffer solution. Samples were withdrawn at designated time intervals and analysed for remaining prodrug by HPLC at 37° C. over 12 h.
Reversed phase gradient HPLC method, column YMC Pro C8, 50 mm×4.0 mm, 3 μm, Eluent A: Water:trifluoroacetic acid (100:0.5 (v/v)), Eluent B: Acetonitrile:trifluoroacetic:acid (100:0.5 (v/v)). Column temperature 30° C., Flow rate 3.0 mL/min, Detection wavelength: 220 nm
For evaluation, the peak area of the respective compound from the first injection is defined as 100% relative concentration. The peak areas of all other subsequent injections are calculated in percentage relating to this standard. (relative concentration in %). The relative concentrations are plotted in a logarithmic scale (ln) against the injection times. Based on the assumption of a first order kinetic, the rate constant and half life times (t1/2 [h]) can be calculated.

Data set [3] can be described thus: Permeability in Caco-2 cells, apical to basolateral. As to conditions: human; 21d Caco-2 monolayer, apical pH 6.5 to basolateral pH 7.4, 60 minutes. More on the design: dose or concentration left out as unconfirmed. The class given is in vitro ADME. From the text:
The human adenocarcinoma cell line Caco-2 is used as an in vitro system to predict oral absorption. These cells serve as a model of small bowel tissue and permeation through these cells is a predictor for gastro-intestinal absorption. Further to being a model for oral absorption, permeability in Caco-2 cells may be predictive for the blood brain barrier permeability (P. Garberg et al.; Toxicology in vitro 19 (2005); 299-334). […] The permeability in Caco-2 cells has been tested by the following method:
The permeability of selected compounds of formula I across Caco-2 (21d Caco-2-culture) monolayer in the apical to basolateral direction is investigated. Control substances were ^3H-propranolol and ^3H-mannitol.
The nominal concentration of the test items is […]. The pH value is set to 6.5 for the apical transport medium and to 7.4 for the basolateral medium. Samples are obtained following 60 minutes (120 minutes for control samples) incubation from the basolateral receiver chamber. At sampling time approximately 600 μL of each well are transferred into an eppendorf vial and stored between −12° and −30° C. until HPLC or LC-MS/MS analysis. The control substances are quantified by liquid scintillation.

A short description of data set [4]: Solubility in 0.1 N HCl, PBS buffer, FaSSIF and FeSSIF. The class given is physicochemical. To be noted: thermodynamic from solid, ambient temperature. How it is done:
For testing solubility, saturated solutions of selected compounds of formula I are prepared in four different systems and compared to the solubility of entacapone. The solubility is tested in 0.1 N HCl (pH 1), PBS buffer (pH 7.4) and in two simulated gastric fluids, FaSSIF at pH 6.5 (for fasting state) and FeSSIF at pH 5.0 (for fed state) at ambient temperature. The content of the FaSSIF simulated gastric fluid is as follows:
The solubility testing is carried out by the following method: An excess amount of each compound is added to a 0.1 N HCl, PBS buffer, FeSSIF and FaSSIF. The suspensions are shaken for 10 min. After centrifugation the concentration is determined by HPLC. Reversed phase gradient HPLC method, column YMC Pro C8, 50 mm×4.0 mm, 3 μm, Eluent A: Water:trifluoroacetic acid (100:0.5 (v/v)), Eluent B: Acetonitrile:trifluoroacetic:acid (100:0.5 (v/v)). Column temperature 30° C., Flow rate 3.0 mL/min, Detection wavelength: 220 nm

Where [5] appears, read: pH 1, 0.1 N HCl, read-out: t1/2 at pH 1 (converted).
Where [6] appears, read: pH 7.4, PBS buffer, read-out: t1/2 at pH 7.4 (converted).
[7] abbreviates: 0.1 N HCl, pH 1, simulated gastric fluid, shaken 10 min, read-out: Solubility 0.1N HCl Ph 1.0.
Where [8] appears, read: FaSSIF, pH 6.5, fassif, fasting state fluid, read-out: Solubility FaSSIF Ph 6.5.
[9] abbreviates: FeSSIF, pH 5, fessif, fed state fluid, read-out: Solubility FeSSIF Ph 5.0.
The mark [10] stands for this setting: PBS buffer, pH 7.4, aqueous buffer, read-out: Solubility PBS Ph 7.4.

Regarding `CCCOC(=O)Oc1cc(/C=C(\C#N)C(=O)N(CC)CC)cc([N+](=O)[O-])c1O` [Compound 41, Carbonic acid 5-((E)-2-cyano-2-diethylcarbamoyl-vinyl)-2-hydroxy-3-nitro-phenyl ester propyl ester], the half-life at 5 μg/mL in the data set “Plasma stability ex vivo” came out at 6.7 min. In addition, the chromatographic logD in data set [1] was 1.2. For the same molecule, the values for the half-life in data set [2] (setting [5]) and in data set [2] (setting [6]) were 1390 min and 432 min, respectively. For the same molecule, in data set [3], the apical-to-basolateral permeability (Papp A→B) at 60 min came out at 18 ×10⁻⁶ cm/s. Further, the solubility at 10 min in data set [4] (setting [7]) was 10 µg/mL (≈ 25.6 µM); in data set [4] (setting [8]), 290 µg/mL (≈ 741 µM); in data set [4] (setting [9]), 200 µg/mL (≈ 511 µM); in data set [4] (setting [10]), 470 µg/mL (≈ 1200 µM).
As for `CCN(CC)C(=O)/C(C#N)=C/c1cc(OC(=O)OC2CCCCC2)c(O)c([N+](=O)[O-])c1` [Compound 51, Carbonic acid 5-((E)-2-cyano-2-diethylcarbamoyl-vinyl)-2-hydroxy-3-nitro-phenyl ester cyclohexyl ester], in the data set “Plasma stability ex vivo”, the half-life at 5 μg/mL stood at 38.4 min. Further, the chromatographic logD in data set [1] was found to be 1.8. The half-life was < 60 min in data set [2] (setting [5]) and 1160 min in data set [2] (setting [6]). The Papp A→B at 60 min in data set [3] turned out to be 45 ×10⁻⁶ cm/s. Further, the solubility at 10 min in data set [4] (setting [7]) is < 10 µg/mL; in data set [4] (setting [8]), 1200 µg/mL (≈ 2780 µM); in data set [4] (setting [9]), 140 µg/mL (≈ 324 µM); in data set [4] (setting [10]), 810 µg/mL (≈ 1880 µM).
As to `CCOC(=O)Oc1cc(/C=C(\C#N)C(=O)N(CC)CC)cc([N+](=O)[O-])c1O` [Compound 71, Carbonic acid 5-((E)-2-cyano-2-diethylcarbamoyl-vinyl)-2-hydroxy-3-nitro-phenyl ester ethyl ester], the half-life at 5 μg/mL in “Plasma stability ex vivo” came out at 0.8 min. The molecule also came in with a chromatographic logD in data set [1] of 0.8. Besides, the half-life in data set [2] (setting [5]) was 1730 min; in data set [2] (setting [6]), 498 min. Also, the Papp A→B at 60 min in data set [3] was 7.7 ×10⁻⁶ cm/s. Besides, the solubility at 10 min in data set [4] (setting [7]) is 70 µg/mL (≈ 186 µM); in data set [4] (setting [8]), 570 µg/mL (≈ 1510 µM); in data set [4] (setting [9]), 1100 µg/mL (≈ 2920 µM); in data set [4] (setting [10]) it was 800 µg/mL (≈ 2120 µM).
As to `CCN(CC)C(=O)/C(C#N)=C/c1cc(OC(=O)OCC(C)C)c(O)c([N+](=O)[O-])c1` [Compound 1, Carbonic acid 5-((E)-2-cyano-2-diethylcarbamoyl-vinyl)-2-hydroxy-3-nitro-phenyl ester isobutyl ester], the half-life at 5 μg/mL in the data set “Plasma stability ex vivo” is 7.7 min. Besides, the chromatographic logD in data set [1] turned out to be 1.4. For the same molecule, the half-life in data set [2] (setting [5]) is 408 min; in data set [2] (setting [6]) it was 696 min. For the same molecule, the apical-to-basolateral permeability (Papp A→B) at 60 min in data set [3] was 24 ×10⁻⁶ cm/s. Besides, the solubility at 10 min in data set [4] (setting [7]) was 20 µg/mL (≈ 49.3 µM); in data set [4] (setting [8]), 530 µg/mL (≈ 1310 µM); in data set [4] (setting [9]), 200 µg/mL (≈ 493 µM); in data set [4] (setting [10]) it was 530 µg/mL (≈ 1310 µM).
Take `CCN(CC)C(=O)/C(C#N)=C/c1cc(OC(=O)OCCc2cccs2)c(O)c([N+](=O)[O-])c1` [Compound 61, Carbonic acid 5-((E)-2-cyano-2-diethylcarbamoyl-vinyl)-2-hydroxy-3-nitro-phenyl ester 2-thiophen-2-yl-ethyl ester]: in “Plasma stability ex vivo”, the half-life at 5 μg/mL amounted to 28.2 min. In addition, the chromatographic logD in data set [1] was 1.7. The results for the half-life in data set [2] (setting [5]) and in data set [2] (setting [6]) were 768 min and 240 min, respectively. In data set [3], this molecule registered a Papp A→B at 60 min of 36 ×10⁻⁶ cm/s. In addition, the solubility at 10 min in data set [4] (setting [8]) worked out at 240 µg/mL (≈ 522 µM); in data set [4] (setting [9]), 40 µg/mL (≈ 87.1 µM); in data set [4] (setting [10]), 490 µg/mL (≈ 1070 µM).
Turning to `CCN(CC)C(=O)/C(C#N)=C/c1cc(OC(=O)OC2CC3CCC2(C)C3(C)C)c(O)c([N+](=O)[O-])c1` (stereo not drawn) [Compound 67, Carbonic acid 5-((E)-2-cyano-2-diethylcarbamoyl-vinyl)-2-hydroxy-3-nitro-phenyl ester 1,7,7-trimethyl-bicyclo[2.2.1]hept-2-yl ester], in the data set “Plasma stability ex vivo”, the half-life at 5 μg/mL was 2.8 min. The chromatographic logD in data set [1] is 2.8. Also, the half-life was 768 min in data set [2] (setting [5]) and 864 min in data set [2] (setting [6]). The molecule further displayed a Papp A→B at 60 min in data set [3] of 14.8 ×10⁻⁶ cm/s.
For the molecule `CCN(CC)C(=O)/C(C#N)=C/c1cc(OC(=O)OC(C)C)c(O)c([N+](=O)[O-])c1` [Compound 7, Carbonic acid 5-((E)-2-cyano-2-diethylcarbamoyl-vinyl)-2-hydroxy-3-nitro-phenyl ester isopropyl ester], in “Plasma stability ex vivo”, the half-life at 5 μg/mL was 13.4 min. Further, the chromatographic logD in data set [1] turned out to be 1. In addition, the half-life is 162 min in data set [2] (setting [5]) and 1390 min in data set [2] (setting [6]). Also, the Papp A→B at 60 min in data set [3] turned out to be 31 ×10⁻⁶ cm/s. Besides, the solubility at 10 min in data set [4] (setting [7]) is 3 µg/mL (≈ 7.67 µM); in data set [4] (setting [8]), 750 µg/mL (≈ 1920 µM); in data set [4] (setting [9]), 90 µg/mL (≈ 230 µM); in data set [4] (setting [10]), 950 µg/mL (≈ 2430 µM).
For the molecule `C=CCOC(=O)Oc1cc(/C=C(\C#N)C(=O)N(CC)CC)cc([N+](=O)[O-])c1O` [Compound 65, Carbonic acid allyl ester 5-((E)-2-cyano-2-diethylcarbamoyl-vinyl)-2-hydroxy-3-nitro-phenyl ester], in “Plasma stability ex vivo”, the half-life at 5 μg/mL turned out to be 1 min. The molecule further showed a chromatographic logD in data set [1] of 1. For the same molecule, the half-life is 990 min in data set [2] (setting [5]) and 246 min in data set [2] (setting [6]). In data set [3], this molecule came in with an apical-to-basolateral permeability (Papp A→B) at 60 min of 8.5 ×10⁻⁶ cm/s.

The term chromatographic logD denotes a lipophilicity value derived from retention on a column. Usually Papp A→B stands for how fast a substance crosses the layer from the apical side. A word on the solubility: it is the concentration that dissolves in the medium under given conditions.
